In US8008354B2, “Death receptor sensitizing compounds and methods of use therefor” (Burnham Institute for Medical Research, priority 2006, dated 2011):

Assays:
[1] = system: PPC-1 cells; assay: MTS viability of adherent PPC-1 cells with or without CH-11, thirty hours; type: cell-based, human; settings: CH-11 100 ng/mL
Experimental: FIG. 13. Small molecule down-regulation of FLIP sensitizes prostate cancer cells to anoikis. (A) PPC-1 cells were seeded overnight in adherent conditions and then treated with increasing concentrations of 5809354 for 16 hours. After incubation, cells were harvested. Total cellular RNA was extracted and mRNA levels of the long isoform of FLIP (FLIPL), the short isoform of FLIP (FLIPS), or rRNA levels of 18S were detected by real-time RT-PCR. Data were normalized using the ΔΔCT method and expressed as the mean±SEM percent of […] expression relative to untreated controls. (B) PPC-1 cells were cultured and treated as in panel A. Total cellular protein was isolated and analyzed by SDS-PAGE immunoblotting using anti-FLIP and anti-Actin antibodies. […] Thirty hours after incubation, cell viability was determined using the MTS assay. […] After incubation, apoptosis was measured by flow cytometry to detect cell surface annexin V expression and PI. […] (E) Cells were harvested, fixed, stained with DAPI, and nuclear morphology analyzed by fluorescence microscopy. […] One week later, cells were stained with methylene blue and the number of colonies counted. […]
Cell viability apoptosis, colony formation, and caspase activation assays. Cell viability was assessed using the MTS reduction assay (Promega, Madison, Wis., USA) according to the manufacturer's protocols and as described in Schimmer et al. (2006). […]

[2] = system: PC-3, DU-145, LNCaP, T47D, MB-MDA-468 and OVCAR-3 cells; assay: MTS viability of additional malignant cell lines under adherent conditions with or without CH-11; type: cell-based
Experimental: FIG. 14. Tumor cell sensitivity to anoikis correlates with sensitivity to Fas-mediated apoptosis. PC-3, DU-145, and LNCaP prostate, T47D and MB-MDA-468 breast, and OVCAR-3 ovarian cancer cells were cultured under adherent conditions with increasing concentrations of 5809354, in the presence or absence of Fas-activating antibody (CH-11, 100 ng/mL). Thirty hours after incubation, cell viability was determined using the MTS assay. Cell lines were also cultured under suspension conditions in the presence or absence of 5809354. Thirty hours after incubation, equal volumes of suspension-cultured cells were replated in a colony formation assay. Data represents the mean±SEM percent of viable cells or colonies compared to untreated controls.
Cell viability apoptosis, colony formation, and caspase activation assays. Cell viability was assessed using the MTS reduction assay (Promega, Madison, Wis., USA) according to the manufacturer's protocols and as described in Schimmer et al. (2006). Apoptosis was measured by flow cytometry to detect cell surface annexin V expression and propidium iodide (PI) uptake (Biovision, Mountain View, Calif., USA) as described in Carter et al. (2005). […] Clonogenic growth after suspension culture was measured using colony formation assays. […] Colonies were fixed, stained with methylene blue, and counted. […]

4-(4-chloro-2-methylphenoxy)-N-hydroxybutanamide [compound 5809354]
viability in the presence of Fas-activating antibody (CH-11) [1]: decreases in viability
sensitization to CH-11 ([2]; LNCaP or MB-MDA-468 cells): did not sensitize
sensitization to CH-11-induced apoptosis ([2]; PC-3, DU-145, T47D and OVCAR-3 cell lines, CH-11 100 ng/mL): sensitized
